Reference: patent publication US10952992B2, “Methods of treating intraocular pressure with activators of Tie-2” (Aerpio Pharmaceuticals, Inc., priority 2015, dated 2021)
Where “and” joins values, the source holds several entries; their conditions need not be identical. Equal entries are not always repeated.

Experiment: Example 2 iris, retina, choroid and cornea tissue concentrations
Assay type: in vivo, male New Zealand White rabbits
Details: for Average / Conc. (ng/g) OS / Conc. (ng/mL) OS / Conc. (ng/mL) OD / Conc. (ng/g) OD: subcutaneous 5 mg/kg/dose (Group 3), free acid; for Average Peak Concentration, Choroid / Average Peak Concentration, Cornea / Average Peak Concentration, Iris / Average Peak Concentration, Retina: suspension; for Choroid Conc. OS / Choroid Conc. OD: choroid homogenate; for Choroid Conc. OS / Choroid tissue Conc. OS: left eye; for Choroid Conc. OS / Choroid Conc. OD / Choroid tissue Conc. OS / Choroid tissue Conc. OD: individual animals; for Choroid Conc. OS / Choroid Conc. OD / Choroid tissue Conc. Avg. / Choroid tissue Conc. OS / Choroid tissue Conc. OD: intravitreal 2.5 mg/eye (~1.54 mg/kg), group 5; for Choroid Conc. OD / Choroid tissue Conc. OD: right eye; for Choroid tissue Conc. Avg.: average
Procedure: To measure the concentration of Compound 1 in plasma and ocular tissues following topical ocular, subcutaneous, and intravitreal administration, New Zealand White rabbits were administered Compound 1, and plasma and ocular samples were collected at pre-determined time points. Compound 1 formulations were prepared fresh on each day of dosing.
Ocular tissue samples from both eyes of each animal were collected and weights were recorded. Plasma and ocular tissue sample concentrations of Compound 1 were determined by LC-MS/MS.
Animals were anesthetized for ocular (topical) and intravitreal dosing following the 12IA7 IACUC protocol. Each rabbit received a bolus dose of test formulation either via topical ocular administration 3 times daily on Days 1 and 2 (at 0, 6, and 12 hours), and once on Day 3 (at 0 hours) into both eyes; via intravitreal administration into both eyes once on Day 1 (at 0 hours); or via subcutaneous administration 2 times daily on Days 1 and 2 (at 0 and 8 hours) and once daily on Day 3 (at 0 hours). Doses were given within an approximately 1 hour window each day where applicable.
On Day 1, for intravitreal administration, or on Day 3, for topical ocular and subcutaneous administration, at the appropriate ocular tissue collection time points, animals were euthanized and both eyes were enucleated immediately. Following enucleation, each eye was rinsed with phosphate-buffered saline. Ocular tissue samples from both eyes of each animal were collected at predetermined time points and weights were recorded. All the samples were frozen immediately on dry ice, and stored at −60° C. to −80° C. pending bioanalysis.
An LC-MS/MS method was developed for the determination of Compound 1 in rabbit aqueous tissues (plasma, aqueous and vitreous humor) and solid ocular tissue samples. A pre-study standard curve was analyzed to determine the specificity, range, and lower limit of quantitation of the method. Plasma and tissue homogenate study samples were extracted and analyzed. All the samples were treated identically to the standards.
One eight-point standard curve was used in each analytical batch. To be accepted, each batch must have had at least five of eight standards with accuracy within ±20% of nominal, except at the lower limit of quantification (LLOQ), where ±25% was acceptable.

[1] = Choroid, 1 hr, listed as Compound 1 (free acid)
[2] = Group 3: subcutaneous 5 mg/kg/dose
[3] = Group 5: intravitreal 1.54 mg/kg/dose

## COC(=O)N[C@@H](Cc1ccccc1)C(=O)N[C@@H](Cc1ccc(NS(=O)(=O)O)cc1)c1csc(-c2cccs2)n1 [Compound 1 free acid]
Choroid, 0.5 hr
  Average: 127 ng/g
  Conc. (ng/g) OS: 83.1 ng/g and 154 ng/g
  Conc. (ng/mL) OS: 7.55 ng/mL and 14.0 ng/mL
Choroid, 1 hr
  Average: 83.3 ng/g
  Conc. (ng/mL) OD: 8.65 ng/mL
[1]
  Conc. (ng/g) OD: 66.4 ng/g and 95.2 ng/g
  Conc. (ng/g) OS: 88.1 ng/g and 83.6 ng/g
  Conc. (ng/mL) OD: 6.04 ng/mL
  Conc. (ng/mL) OS: 8.01 ng/mL and 7.60 ng/mL
Choroid, 2 hr
  Average: 47.7 ng/g
  Conc. (ng/g) OD: 36.5 ng/g and 46.9 ng/g
  Conc. (ng/g) OS: 53.2 ng/g and 54.3 ng/g
  Conc. (ng/mL) OD: 3.32 ng/mL and 4.26 ng/mL
  Conc. (ng/mL) OS: 4.84 ng/mL and 4.94 ng/mL
Choroid, 4 hr
  Average: 61.0 ng/g
  Conc. (ng/g) OD: 53.0 ng/g and 51.2 ng/g
  Conc. (ng/mL) OD: 4.82 ng/mL and 4.65 ng/mL
Cornea, 0.5 hr
  Average: 7.96 ng/g
  Conc. (ng/g) OD: 6.05 ng/g
  Conc. (ng/g) OS: 9.87 ng/g
Cornea, 1 hr
  Average: 12.2 ng/g
  Conc. (ng/g) OD: 12.2 ng/g
  Conc. (ng/mL) OS: BLOQ
Cornea, 2 hr
  Average: 5.65 ng/g
  Conc. (ng/g) OD: 5.65 ng/g
  Conc. (ng/mL) OS: BLOQ
Cornea, 4 hr
  Average: 15.8 ng/g
  Conc. (ng/g) OD: 10.4 ng/g and 9.32 ng/g
  Conc. (ng/mL) OD: 0.942 ng/mL and 0.847 ng/mL
[2]
  Average Peak Concentration, Choroid: 127 ng/g
  Average Peak Concentration, Cornea: 7.96 ng/g
  Average Peak Concentration, Iris: 50.3 ng/g
  Average Peak Concentration, Retina: 38.7 ng/g
[3]
  Average Peak Concentration, Choroid: 663575 ng/g
  Average Peak Concentration, Cornea: 54560 ng/g
  Average Peak Concentration, Iris: 210650 ng/g
  Average Peak Concentration, Retina: 1988250 ng/g
Iris, 0.5 hr
  Average: 50.3 ng/g
  Conc. (ng/g) OS: 47.0 ng/g and 38.9 ng/g
  Conc. (ng/mL) OS: 4.27 ng/mL and 3.54 ng/mL
Iris, 1 hr
  Average: 58.0 ng/g
  Conc. (ng/g) OS: 47.6 ng/g and 34.3 ng/g
  Conc. (ng/mL) OS: 4.33 ng/mL and 3.12 ng/mL
Iris, 2 hr
  Average: 27.6 ng/g
  Conc. (ng/g) OD: 30.5 ng/g and 32.0 ng/g
  Conc. (ng/g) OS: 29.5 ng/g
  Conc. (ng/mL) OD: 2.77 ng/mL and 2.91 ng/mL
  Conc. (ng/mL) OS: 2.68 ng/mL and 1.67 ng/mL
Iris, 4 hr
  Average: 17.5 ng/g
  Conc. (ng/g) OD: 26.5 ng/g and 17.9 ng/g
  Conc. (ng/g) OS: 16.9 ng/g and 8.73 ng/g
  Conc. (ng/mL) OD: 2.41 ng/mL and 1.63 ng/mL
  Conc. (ng/mL) OS: 1.54 ng/mL and 0.794 ng/mL
Retina, 0.5 hr
  Average: 38.7 ng/g
Retina, 1 hr
  Average: 10.2 ng/g
  Conc. (ng/g) OD: 10.4 ng/g
  Conc. (ng/g) OS: 6.93 ng/g and 13.3 ng/g
  Conc. (ng/mL) OS: 0.63 ng/mL and 1.21 ng/mL
Retina, 2 hr
  Average: 10.5 ng/g
  Conc. (ng/g) OD: 6.31 ng/g
  Conc. (ng/g) OS: 6.93 ng/g
Retina, 4 hr
  Average: 35.3 ng/g
  Conc. (ng/mL) OD: BLOQ
6.0 hr
  Choroid Conc. OS: 63400 ng/mL and 69700 ng/mL
  Choroid Conc. OD: 32800 ng/mL and 75400 ng/mL
  Choroid tissue Conc. Avg.: 663575 ng/g
  Choroid tissue Conc. OS: 697400 ng/g and 766700 ng/g
  Choroid tissue Conc. OD: 360800 ng/g and 829400 ng/g
24 hr
  Choroid Conc. OS: 28400 ng/mL and 43500 ng/mL
  Choroid Conc. OD: 15200 ng/mL and 57500 ng/mL
  Choroid tissue Conc. Avg.: 397650 ng/g
  Choroid tissue Conc. OS: 312400 ng/g and 478500 ng/g
  Choroid tissue Conc. OD: 167200 ng/g and 632500 ng/g
48 hr
  Choroid Conc. OS: 9320 ng/mL and 14800 ng/mL
  Choroid Conc. OD: 9940 ng/mL and 9580 ng/mL
  Choroid tissue Conc. Avg.: 120010 ng/g
  Choroid tissue Conc. OS: 102520 ng/g
  Choroid tissue Conc. OD: 109340 ng/g and 105380 ng/g
72 hr
  Choroid Conc. OS: 2660 ng/mL and 2910 ng/mL
  Choroid Conc. OD: 2180 ng/mL and 2270 ng/mL
